Common to all, as to experiment: microbe, parasite or virus in culture
Assay [1] relates to wild type S. epidermidis RP62A. It counts as cell-based, Staphylococcus epidermidis. To be noted: for MIC: Sensitive strain (SPase without the resistance-conferring Pro).
The test system of assay [2] is lepB(P84L) E. coli MG1655. It counts as cell-based, Escherichia coli.
Assay [3] has as its system lepB(P29S) S. aureus 8325. It counts as cell-based, Staphylococcus aureus. To be noted: for MIC: Sensitive (genetically sensitized) strain.
Assay [4] has as its system lepB(P84L) P. aeruginosa PAO1. The assay is classed as cell-based, Pseudomonas aeruginosa.
The test system of assay [5] is wild type P. aeruginosa PAO1. It counts as cell-based, Pseudomonas aeruginosa.
The next assay has as its system wild type E. coli MG1655. The assay is classed as cell-based, Escherichia coli.
Assay [6] has as its system spsB(S29P) S. epidermidis RP62A. The assay is classed as cell-based, Staphylococcus epidermidis.
The next assay concerns wild type S. aureus 8325. It counts as cell-based, Staphylococcus aureus. To be noted: for MIC: Resistant strain (wild type).
[7] abbreviates: Table 3, P3 position derivatives, unit not given.
Setting [8] is: Pseudomonas aeruginosa, PAO1, Resistant strain (wild type), read-out: MIC.
The mark [9] stands for this setting: Escherichia coli, MG1655, Resistant strain (wild type), read-out: MIC.
The mark [10] stands for this setting: Staphylococcus epidermidis, read-out: MIC.
Setting [11] is: Staphylococcus aureus, read-out: MIC.
The mark [12] stands for this setting: Escherichia coli, MG1655, Sensitive (genetically sensitized) strain, read-out: MIC.
Where [13] appears, read: Pseudomonas aeruginosa, PAO1, Sensitive (genetically sensitized) strain, read-out: MIC.
Where [14] appears, read: Sensitive (genetically sensitized) strain.

Experimental findings from patent US20160297851A1, “BROAD SPECTRUM […]” (priority 2012, published 2016) are described below.

Each structure is given as a SMILES string. In brackets after ≈: the same amount, converted by molar mass. Entries after “also recorded” stand apart in the source; their conditions may differ. Where two headings read alike, the source gives them in different places.

For `CCCCCCCCCCCCCCCC(=O)N(C)[C@H](CO)C(=O)N[C@H](C)C(=O)NCC(=O)N(C)[C@@H]1C(=O)N[C@@H](CCC)C(=O)N[C@H](C(=O)O)Cc2ccc(O)c(c2)-c2cc1ccc2O` [Compound 28], the “minimal inhibitory concentration (MIC)” value turned out to be 1 in assay [1] (setting [7]), 2 in assay [2] (setting [7]), 8 in assay [3] (setting [7]) and 8 in assay [4] (setting [7]).
Regarding `CCCCCCCCCCCCCCCC(=O)N(C)[C@H](CO)C(=O)N[C@H](C)C(=O)NCC(=O)N(C)[C@@H]1C(=O)N[C@@H](CCCC)C(=O)N[C@H](C(=O)O)Cc2ccc(O)c(c2)-c2cc1ccc2O` [Compound 29], the “minimal inhibitory concentration (MIC)” value in assay [1] is given as 4; in assay [2] it was greater than 128; in assay [3] it was 16; in assay [4] it was greater than 128. The “fold loss of activity relative to arylomycin C16” value in assay [3] is on record as 32 fold.
For the compound `C[C@@H]1NC(=O)[C@@H](N(C)C(=O)CNC(=O)[C@@H](C)NC(=O)[C@@H](CO)N(C)C(=O)c2ccc(-c3ccccc3)cc2)c2ccc(O)c(c2)-c2cc(ccc2O)C[C@@H](C(=O)O)NC1=O` [Compound 8], the MIC is greater than 64 µg/mL in assay [5] (setting [8]); greater than 64 µg/mL with wild type E. coli MG1655 (setting [9]); greater than 64 µg/mL in assay [6] (setting [10]); 32 µg/mL (≈ 38.9 µM) in assay [1] (setting [10]); greater than 64 µg/mL in the assay with wild type S. aureus 8325 (setting [11]); greater than 64 µg/mL in assay [2] (setting [12]). Further, the MIC in assay [3] (setting [11]) and in assay [4] (setting [13]) was greater than 64 µg/mL throughout. Further, the activity in words entry in assay [1] was “retains some activity”.
Regarding `CCCCCCCCCCCCCCCC(=O)N(C)[C@H](CO)C(=O)N[C@H](C)C(=O)NCC(=O)N(C)[C@@H]1C(=O)N[C@@H](CC(C)C)C(=O)N[C@H](C(=O)O)Cc2ccc(O)c(c2)-c2cc1ccc2O` [Compound 35], the “minimal inhibitory concentration (MIC)” value in assay [1] is reported as 2; in assay [2], 4; in assay [3] it was 32; in assay [4], greater than 64. In assay [2], the activity in words entry is “maintained activity”. Moreover, in assay [4], the “fold loss of activity relative to arylomycin C16” value is greater than 16 fold.
Turning to `CCCCCCCCCCCCCCCC(=O)N(C)[C@H](CO)C(=O)N[C@H](C)C(=O)NCC(=O)N(C)[C@@H]1C(=O)N[C@@H](CCCCC)C(=O)N[C@H](C(=O)O)Cc2ccc(O)c(c2)-c2cc1ccc2O` [Compound 30], the “minimal inhibitory concentration (MIC)” value is given as 4 in assay [1] (setting [7]), greater than 128 in assay [2] (setting [7]), 16 in assay [3] (setting [7]) and greater than 128 in assay [4] (setting [7]). The “fold loss of activity relative to arylomycin C16” value in assay [3] is reported as 32 fold.
Turning to `CCCCCCCCc1ccc(-c2ccc(C(=O)N(C)[C@H](CO)C(=O)N[C@H](C)C(=O)NCC(=O)N(C)[C@@H]3C(=O)N[C@@H](C)C(=O)N[C@H](C(=O)O)Cc4ccc(O)c(c4)-c4cc3ccc4O)cc2)cc1` [Compound 12], the MIC is greater than 64 µg/mL in assay [5] (setting [8]); greater than 64 µg/mL in the assay on wild type E. coli MG1655 (setting [9]); 32 µg/mL (≈ 34.2 µM) in assay [6] (setting [10]); 0.5 µg/mL (≈ 0.535 µM) in assay [1] (setting [10]); 64 µg/mL (≈ 68.4 µM) in the assay with wild type S. aureus 8325 (setting [11]); 1 µg/mL in assay [2] (setting [12]). The results for the MIC in assay [3] (setting [11]) and in assay [4] (setting [13]) were 8 µg/mL and greater than 64 µg/mL, respectively. Besides, the activity in words entry in assay [6] is “active”.
Consider `CCc1ccc(-c2ccc(C(=O)N(C)[C@H](CO)C(=O)N[C@H](C)C(=O)NCC(=O)N(C)[C@@H]3C(=O)N[C@@H](C)C(=O)N[C@H](C(=O)O)Cc4ccc(O)c(c4)-c4cc3ccc4O)cc2)cc1` [Compound 10], for which the MIC is greater than 64 µg/mL in assay [5] (Resistant strain (wild type)); greater than 64 µg/mL against wild type E. coli MG1655 (Resistant strain (wild type)); greater than 64 µg/mL in assay [6]; 8 µg/mL (≈ 9.4 µM) in assay [1]; greater than 64 µg/mL in the assay with wild type S. aureus 8325; 16 µg/mL in assay [2] (setting [14]). The MIC is 64 µg/mL in assay [3] and greater than 64 µg/mL in assay [4] (setting [14]).
In the case of `CCCCCCCCCCCCCCCC(=O)N(C)[C@H](CO)C(=O)N[C@H](C)C(=O)NCC(=O)N(C)[C@@H]1C(=O)N[C@@H](C(C)C)C(=O)N[C@H](C(=O)O)Cc2ccc(O)c(c2)-c2cc1ccc2O` [Compound 34], the “minimal inhibitory concentration (MIC)” value in assay [1] (setting [7]) came out at 4; in assay [2] (setting [7]) it was 4; in assay [3] (setting [7]), 32; in assay [4] (setting [7]) it was 16. In assay [2], the activity in words entry was “maintained activity”. The “fold loss of activity relative to arylomycin C16” value in assay [4] is on record as 4 fold.
For the compound `CCCCCCCCCCCCCCCC(=O)N(C)[C@H](CO)C(=O)N[C@H](C)C(=O)NCC(=O)N(C)[C@@H]1C(=O)NC(CC(F)(F)F)C(=O)N[C@H](C(=O)O)Cc2ccc(O)c(c2)-c2cc1ccc2O` (stereo partly drawn) [Compound 33], the “fold loss of activity relative to arylomycin C16” value is 32 fold in assay [1], 8 fold in assay [2], “at least 16 fold” in assay [3] and “at least 16 fold” in assay [4]. Also, the “minimal inhibitory concentration (MIC)” value in assay [1] (setting [7]) is given as 8; in assay [2] (setting [7]), 16; in assay [3] (setting [7]), greater than 64; in assay [4] (setting [7]), greater than 64.
Turning to `CCCCCCCCCCCCCCCC(=O)N(C)[C@H](CO)CC(=O)N[C@H](C)C(=O)NCC(=O)N(C)[C@@H]1C(=O)N[C@@H](C)C(=O)N[C@H](C(=O)O)Cc2ccc(O)c(c2)-c2cc1ccc2O` [Compound 23], the MIC in assay [5] (setting [8]) was greater than 64 µg/mL; in the assay with wild type E. coli MG1655 (setting [9]), greater than 64 µg/mL; in assay [6] (setting [10]), 8 µg/mL (≈ 8.94 µM); in assay [1] (setting [10]), 4 µg/mL (≈ 4.47 µM); with wild type S. aureus 8325 (setting [11]) it was 64 µg/mL (≈ 71.5 µM); in assay [2] (setting [12]), greater than 64 µg/mL. The MIC was 16 µg/mL in assay [3] (setting [11]) and greater than 64 µg/mL in assay [4] (setting [13]). The activity in words entry in the assay with wild type S. aureus 8325 is listed as “gain activity”.
Turning to `CCCCCCCCc1ccc(C(=O)N(C)[C@H](CO)C(=O)N[C@H](C)C(=O)NCC(=O)N(C)[C@@H]2C(=O)N[C@@H](C)C(=O)N[C@H](C(=O)O)Cc3ccc(O)c(c3)-c3cc2ccc3O)cc1` [Compound 14], the MIC in assay [5] (setting [8]) was greater than 64 µg/mL; in the assay with wild type E. coli MG1655 (setting [9]) it was greater than 64 µg/mL; in assay [6] (setting [10]), greater than 64 µg/mL; in assay [1] (setting [10]), 8 µg/mL (≈ 9.31 µM); with wild type S. aureus 8325 (setting [11]), greater than 64 µg/mL; in assay [2] (setting [12]), 32 µg/mL. Moreover, the results for the MIC in assay [3] (setting [11]) and in assay [4] (setting [13]) were 64 µg/mL and greater than 64 µg/mL, respectively.
On to `CCCCCCCCCCc1ccc(C(=O)N(C)[C@H](CO)C(=O)N[C@H](C)C(=O)NCC(=O)N(C)[C@@H]2C(=O)N[C@@H](C)C(=O)N[C@H](C(=O)O)Cc3ccc(O)c(c3)-c3cc2ccc3O)cc1` [Compound 15], for which the MIC in assay [5] (setting [8]) was greater than 64 µg/mL; with wild type E. coli MG1655 (setting [9]), greater than 64 µg/mL; in assay [6] (setting [10]), greater than 64 µg/mL; in assay [1] (setting [10]), 1 µg/mL (≈ 1.13 µM); in the assay with wild type S. aureus 8325 (setting [11]) it was greater than 64 µg/mL; in assay [2] (setting [12]), 8 µg/mL. The MIC in assay [3] (setting [11]) was determined as 8 µg/mL; in assay [4] (setting [13]), 64 µg/mL. Moreover, the activity in words result in the assay with wild type S. aureus 8325 is “has activity; also recorded: gains activity”.
Consider `CCCCCCCCCCCCCCCC(=O)N(C)[C@H](CO)C(=O)N[C@H](C)C(=O)NCC(=O)N(C)[C@@H]1C(=O)NCC(=O)N[C@H](C(=O)O)Cc2ccc(O)c(c2)-c2cc1ccc2O` [Compound 26], for which the “fold loss of activity relative to arylomycin C16” value in assay [1] is 32 fold; in assay [2], 32 fold; in assay [3] it was greater than 16 fold; in assay [4], greater than 16 fold. Besides, the “minimal inhibitory concentration (MIC)” value in assay [1] is reported as 8; in assay [2], 16; in assay [3], greater than 64; in assay [4], greater than 64.
With `CCCCCCCCCCCCCCCC(=O)N(C)[C@H](CO)C(=O)N[C@H](C)C(=O)NCC(=O)N(C)[C@@H]1C(=O)N[C@@H](CC)C(=O)N[C@H](C(=O)O)Cc2ccc(O)c(c2)-c2cc1ccc2O` [Compound 27], the “minimal inhibitory concentration (MIC)” value in assay [1] stood at 0.5; in assay [2], 1; in assay [3] it was 8; in assay [4], 4.
With `CCc1ccc(-c2ccc(C(=O)N(C)[C@H](CO)C(=O)N[C@H](C)C(=O)NCC(=O)N(C)[C@@H]3C(=O)N[C@@H](C)C(=O)N[C@H](C(=O)O)Cc4ccc(O)c(c4)-c4cc3ccc4O)cc2)cc1` [Compound 9], the MIC in assay [5] (setting [8]) is greater than 64 µg/mL; in the assay with wild type E. coli MG1655 (setting [9]), greater than 64 µg/mL; in assay [6] (setting [10]), greater than 64 µg/mL; in assay [1] it was 64 µg/mL (≈ 75.2 µM); with wild type S. aureus 8325 (setting [11]), greater than 64 µg/mL; in assay [2] (setting [14]) it was greater than 64 µg/mL. Also, the MIC in assay [3] (setting [11]) and in assay [4] (setting [13]) was greater than 64 µg/mL throughout.
Regarding `CCCCCCCCCCCCCCCC(=O)N(C)[C@H](CO)CCC(=O)N[C@H](C)C(=O)NCC(=O)N(C)[C@@H]1C(=O)N[C@@H](C)C(=O)N[C@H](C(=O)O)Cc2ccc(O)c(c2)-c2cc1ccc2O` [Compound 24], the MIC is greater than 64 µg/mL in assay [5] (setting [8]); greater than 64 µg/mL in the assay with wild type E. coli MG1655 (setting [9]); 16 µg/mL (≈ 17.6 µM) in assay [6] (setting [10]); 8 µg/mL (≈ 8.8 µM) in assay [1] (setting [10]); 16 µg/mL (≈ 17.6 µM) in the assay on wild type S. aureus 8325 (setting [11]); greater than 64 µg/mL in assay [2] (setting [12]). In addition, the MIC in assay [3] (setting [11]) was 4 µg/mL; in assay [4] (setting [13]), greater than 64 µg/mL.
